The record followed here is patent USRE35321E, “Tetrazoleacetic acid derivatives having aldose reductase inhibitory activity” (Wakamoto Pharmaceutical Co., Ltd., priority 1990, dated 1996).

The IC50 is the concentration that inhibits the measured activity by half. A higher IC50 goes with weaker potency.

In assay [1] the test system is accumulation of sorbitol in sciatic nerve. The assay can be described thus: Inhibiting the accumulation of sorbitol in sciatic nerve of streptozotocin diabetic rats. The assay is classed as in vivo, Sprague-Dawley male rats. The settings on record: twice a day for 5 days. How it is done:
Groups of 6 to 8-weeks-old Sprague-Dawley male rats (4 aminals per group) were fasted for 18 hours and streptozotocin was injected through the tail vein in a dose of 60 mg/kg to thus obtain diabetic rats. Immediately after the administration of the streptozotocin, each compound to be tested was orally administered to these rats in the form of a suspension at a dose of 10 mg/kg, 30 mg/kg and 50 mg/kg (each was suspended in a 0.5% sodium carboxymethyl cellulose solution) twice a day (9 o'clock in the morning and 5 o'clock in the afternoon) for 5 days. During the test, the rats took diet and drank water freely. 4 Hours after the final administration of the drug in the 5th day's morning (9 o'clock in the morning), the rats were sacrificed and then the sciatic nerve thereof was removed to determine the amount of sorbitol accumulated therein.
The results are expressed in the percentage obtained while the value obtained on the control to which any drug was not administered is defined to be 100.

In assay [2] the target is T1, aldose reductase (Rattus norvegicus, UniProt P07943).
T1 construct: Then their crystalline lenses were immediately removed and stored at -80° C; The lenses were homogenized; from tissue; host or cells: crystalline lenses of six-week-old male SD rats
The assay can be described thus: Aldose reductase inhibitory effect (enzyme from crystalline lenses, DL-glyceraldehyde substrate). The assay is classed as biochemical, rat (male SD). Conditions: 10 mM DL-glyceraldehyde, pH 6.2, 30° C. How it is done: Six-weeks-old male SD rates were anesthetized with ether and killed. Then their crystalline lenses were immediately removed and stored at -80° C. […] All operations were conducted at 4° C. and the enzyme solution was stored at -80° C.
More specifically, 0.1 ml of DL glyceraldehyde (final concentration: 10 mM) was added to 0.9 ml of 100 mM sodium potassium phosphate buffer (pH 6.2) which contained lithium sulfate (final concentration: 400 mM), reduced nicotinamide adenine dinucleotide phosphate (final concentration: 0.15 mM), the enzyme solution, and the compound to be evaluated (final concentration: 10^-6 M, 10^-7 M or […]), and then the reaction was conducted at 30° C. for 5 minutes. During the reaction, the change in the absorbance at 340 nm with time was monitored. The maximum reducing rate of the absorbance (U) during the reaction was determined. By subtracting, from this value, the maximum reducing rate (Uo) at 340 nm of the reaction solution before the addition of the substrate (DL-glyceraldehyde), the reaction rate (V=U-Uo) was calculated as a true reaction rate in the presence of the compound to be tested.
The same procedure was repeated except for the absence of the compound to be tested. A true reaction rate (Vo) in case the enzyme was not inhibited was calculated (Vo =U'-Uo '). The aldose reductase inhibitory activity of the test compounds was determined according to the following formula:
Rate of Inhibition (%)=(Vo -V)/Vo ×100

Molecules are shown by their SMILES.

For the compound `O=C(O)Cn1nnnc1-c1cccs1` [Example 2-1, [5-(2-thienyl)tetrazol-1-yl] acetic acid], the “Rate of Inhibition of Sorbitol Accumulation” value in assay [1] (10 mg/kg oral) was determined as 68%; in assay [1] (30 mg/kg oral) it was 89%. The 50% inhibitory concentration (IC50) in assay [2] was determined as 16 nM.
The like results for `Cc1ccsc1-c1nnnn1CC(=O)O` [Example 2-2, [5-(3-methyl-2-thienyl)tetrazol-1-yl] acetic acid] were, in that order, 62%, 93% and 18 nM.
The like results for `O=C(O)Cn1nnnc1-c1ccsc1` [Example 2-5, [5-(3-thienyl)tetrazol-1-yl] acetic acid] were, in that order, 73%, 90% and 21 nM.
For `O=C(O)Cn1nnnc1-c1ccoc1` [Example 2-7, [5-(3-furyl)tetrazol-1-yl] acetic acid], in that order: 46%, 77% and 30 nM.
In turn, `CS(=O)(=O)c1sccc1-c1nnnn1CC(=O)O` [Example 2-44, [5-(2-methylsulfonyl-3-thienyl)tetrazol-1-yl] acetic acid] had an IC50 in assay [2] of 520 nM. This lies in the sub-micromolar range.
For `CCOC(=O)Cn1nnnc1-c1ccsc1` [Example 3-2, ethyl [5-(3-thienyl)tetrazol-1-yl] acetate], in assay [2], it took 580 nM to reach half-maximal inhibition (IC50).
Still for that read-out and setting: then `CCCCc1ccc(-c2nnnn2CC(=O)OC)s1` [Example 3-5, methyl [5-(5-butyl-2-thienyl)tetrazol-1-yl] acetate], with 180 nM; and `COC(=O)Cn1nnnc1-c1ccsc1SC` [Example 3-11, methyl [5-(2-methylthio-3-thienyl)tetrazol-1-yl] acetate], with 380 nM.
Turning to `CC(/C=C1\SC(=S)N(CC(=O)O)C1=O)=C\c1ccccc1` [ONO-2235, (E)-3-carboxymethyl-5-[(2E)-methyl-3-phenylpropenylidene] rhodan, reference compound], the “Rate of Inhibition of Sorbitol Accumulation” value in assay [1] (10 mg/kg oral) is on record as 0%; in assay [1] (30 mg/kg oral), 0%; in assay [1] (50 mg/kg oral) it was 40%.
